Tests used:
Assay type in all cases: biochemical
Conditions in all cases: 10 μM, ATP near Km
[1] = target: T1, PKCiota (Homo sapiens, UniProt P41743); experiment: KinaseProfiler PKCiota
T1 construct: purchased Millipore, Inc. (KinaseProfiler service)
Text: (§1) The compound was run in duplicate at a concentration of ATP near the Km for each individual kinase according to Millipore's specifications.

[2] = target: T2, TAK1 (Homo sapiens, UniProt O43318); experiment: KinaseProfiler TAK1
T2 construct: purchased Millipore, Inc. (KinaseProfiler service)
T2 sequence (O43318 1-303 limits assumed): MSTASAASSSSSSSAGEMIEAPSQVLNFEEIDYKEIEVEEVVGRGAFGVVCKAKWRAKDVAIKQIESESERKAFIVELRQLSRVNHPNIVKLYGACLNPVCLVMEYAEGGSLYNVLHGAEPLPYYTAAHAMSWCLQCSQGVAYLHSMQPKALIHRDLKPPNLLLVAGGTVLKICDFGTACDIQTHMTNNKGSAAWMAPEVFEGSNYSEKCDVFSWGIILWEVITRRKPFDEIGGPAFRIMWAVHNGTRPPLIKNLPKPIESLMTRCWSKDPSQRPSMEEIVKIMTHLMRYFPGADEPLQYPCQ
Text: as §1

[3] = target: T3, PDK1 (Homo sapiens, UniProt O15530); experiment: KinaseProfiler PDK1
T3 construct: purchased Millipore, Inc. (KinaseProfiler service)
Text: as §1

[4] = target: T4, PAK2 (Homo sapiens, UniProt Q13177); experiment: KinaseProfiler PAK2
T4 construct: purchased Millipore, Inc. (KinaseProfiler service)
Text: as §1

[5] = target: T5, AKT2 (Homo sapiens, UniProt P31751); experiment: KinaseProfiler AKT2
T5 construct: purchased Millipore (KinaseProfiler service)
Text: as §1

[6] = target: T6, FAK (Homo sapiens, UniProt Q05397); experiment: KinaseProfiler FAK
T6 construct: purchased Millipore, Inc. (KinaseProfiler service)
Text: as §1

[7] = target: T7, FGFR1 (Homo sapiens, UniProt P11362); experiment: KinaseProfiler FGFR1
T7 construct: purchased Millipore, Inc. (KinaseProfiler service)
Text: as §1

[8] = target: T8, KIT (Homo sapiens, UniProt P10721); experiment: KinaseProfiler KIT
T8 construct: purchased Millipore, Inc. (KinaseProfiler service)
Text: as §1

[9] = target: T9, EGFR (Homo sapiens, UniProt P00533); experiment: KinaseProfiler EGFR
T9 construct: purchased Millipore, Inc. (KinaseProfiler service)
Text: as §1

[10] = target: T10, mTOR/FKBP12 (Homo sapiens, UniProt P42345); experiment: KinaseProfiler mTOR/FKBP12
T10 construct: purchased Millipore, Inc. (KinaseProfiler service)
Text: as §1

[11] = target: T11, MAPKAP-K2 (Homo sapiens, UniProt P49137); experiment: KinaseProfiler MAPKAP-K2
T11 construct: purchased Millipore, Inc. (KinaseProfiler service)
Text: as §1

[12] = target: T12, TAO1 (Homo sapiens, UniProt Q7L7X3); experiment: KinaseProfiler TAO1
T12 construct: purchased Millipore, Inc. (KinaseProfiler service)
Text: as §1

[13] = target: T13, AURKA (Homo sapiens, UniProt O14965); experiment: KinaseProfiler AURKA
T13 construct: purchased Millipore (KinaseProfiler service)
Text: as §1

[14] = target: T14, ErbB4 (Homo sapiens, UniProt Q15303); experiment: KinaseProfiler ErbB4
T14 construct: purchased Millipore, Inc. (KinaseProfiler service)
Text: as §1

[15] = target: T15, Lck (Homo sapiens, UniProt P06239); experiment: KinaseProfiler Lck
T15 construct: purchased Millipore, Inc. (KinaseProfiler service)
T15 sequence (P06239 whole entry): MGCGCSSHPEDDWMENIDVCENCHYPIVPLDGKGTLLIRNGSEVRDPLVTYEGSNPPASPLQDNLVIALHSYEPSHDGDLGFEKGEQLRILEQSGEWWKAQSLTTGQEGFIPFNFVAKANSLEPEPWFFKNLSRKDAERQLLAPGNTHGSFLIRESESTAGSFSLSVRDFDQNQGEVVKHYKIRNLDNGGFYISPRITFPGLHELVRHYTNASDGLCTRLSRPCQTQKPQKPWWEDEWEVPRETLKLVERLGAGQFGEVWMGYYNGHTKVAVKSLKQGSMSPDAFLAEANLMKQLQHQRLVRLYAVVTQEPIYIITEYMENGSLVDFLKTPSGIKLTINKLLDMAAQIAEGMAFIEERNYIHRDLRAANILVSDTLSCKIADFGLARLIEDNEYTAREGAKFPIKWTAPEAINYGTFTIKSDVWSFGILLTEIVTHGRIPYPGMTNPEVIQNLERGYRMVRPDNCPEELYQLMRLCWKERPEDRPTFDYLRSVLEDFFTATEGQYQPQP
Text: as §1

[16] = target: T16, IR Activated (Homo sapiens, UniProt P06213); experiment: KinaseProfiler IR Activated
T16 construct: purchased Millipore, Inc. (KinaseProfiler service)
Text: as §1

[17] = target: T17, PAK5 (Homo sapiens, UniProt Q9P286); experiment: KinaseProfiler PAK5
T17 construct: purchased Millipore, Inc. (KinaseProfiler service)
T17 sequence (Q9P286 whole entry): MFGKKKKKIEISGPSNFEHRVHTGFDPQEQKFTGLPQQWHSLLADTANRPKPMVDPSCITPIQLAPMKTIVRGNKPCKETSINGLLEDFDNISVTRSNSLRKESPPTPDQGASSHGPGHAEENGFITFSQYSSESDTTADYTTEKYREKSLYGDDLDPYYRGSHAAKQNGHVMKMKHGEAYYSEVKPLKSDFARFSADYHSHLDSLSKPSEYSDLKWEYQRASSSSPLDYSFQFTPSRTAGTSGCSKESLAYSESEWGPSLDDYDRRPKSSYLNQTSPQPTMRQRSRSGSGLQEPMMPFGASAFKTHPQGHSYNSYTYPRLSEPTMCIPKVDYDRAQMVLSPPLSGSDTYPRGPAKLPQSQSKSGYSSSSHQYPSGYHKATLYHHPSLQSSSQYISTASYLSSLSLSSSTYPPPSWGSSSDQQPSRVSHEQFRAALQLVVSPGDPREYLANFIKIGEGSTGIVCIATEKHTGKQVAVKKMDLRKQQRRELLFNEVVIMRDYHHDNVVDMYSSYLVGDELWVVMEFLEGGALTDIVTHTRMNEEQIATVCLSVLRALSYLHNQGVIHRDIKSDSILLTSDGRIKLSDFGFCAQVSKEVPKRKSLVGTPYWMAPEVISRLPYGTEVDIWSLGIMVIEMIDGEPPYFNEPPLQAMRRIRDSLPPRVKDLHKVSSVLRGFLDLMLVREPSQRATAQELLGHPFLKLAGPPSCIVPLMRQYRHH
Text: as §1

[18] = target: T18, PDGFRalpha (Homo sapiens, UniProt P16234); experiment: KinaseProfiler PDGFRalpha
T18 construct: purchased Millipore, Inc. (KinaseProfiler service)
Text: as §1

[19] = target: T19, SRPK1 (Homo sapiens, UniProt Q96SB4); experiment: KinaseProfiler SRPK1
T19 construct: purchased Millipore, Inc. (KinaseProfiler service)
Text: as §1

[20] = target: T20, Ron (Homo sapiens, UniProt Q04912); experiment: KinaseProfiler Ron
T20 construct: purchased Millipore, Inc. (KinaseProfiler service)
Text: as §1

[21] = target: T21, PKCeta (Homo sapiens, UniProt P24723); experiment: KinaseProfiler PKCeta
T21 construct: purchased Millipore, Inc. (KinaseProfiler service)
Text: as §1

[22] = target: T22, IGF-1R Activated (Homo sapiens, UniProt P08069); experiment: KinaseProfiler IGF-1R Activated
T22 construct: purchased Millipore, Inc. (KinaseProfiler service)
Text: as §1

[23] = target: T23, FAK2 (Homo sapiens, UniProt Q14289); experiment: KinaseProfiler FAK2
T23 construct: purchased Millipore, Inc. (KinaseProfiler service)
Text: as §1

[24] = target: T24, MST1 (Homo sapiens, UniProt Q13043); experiment: KinaseProfiler MST1
T24 construct: purchased Millipore, Inc. (KinaseProfiler service)
Text: as §1

[25] = target: T25, EphB1 (Homo sapiens, UniProt P54762); experiment: KinaseProfiler EphB1
T25 construct: purchased Millipore, Inc. (KinaseProfiler service)
Text: as §1

[26] = target: T26, Lyn (Homo sapiens, UniProt P07948); experiment: KinaseProfiler Lyn
T26 construct: purchased Millipore, Inc. (KinaseProfiler service)
Text: as §1

[27] = target: T27, PRKG1beta (Homo sapiens, UniProt Q13976); experiment: KinaseProfiler PRKG1beta
T27 construct: purchased Millipore, Inc. (KinaseProfiler service)
Text: as §1

[28] = target: T28, TEC Activated (Homo sapiens, UniProt P42680); experiment: KinaseProfiler TEC Activated
T28 construct: purchased Millipore, Inc. (KinaseProfiler service)
T28 sequence (P42680 whole entry): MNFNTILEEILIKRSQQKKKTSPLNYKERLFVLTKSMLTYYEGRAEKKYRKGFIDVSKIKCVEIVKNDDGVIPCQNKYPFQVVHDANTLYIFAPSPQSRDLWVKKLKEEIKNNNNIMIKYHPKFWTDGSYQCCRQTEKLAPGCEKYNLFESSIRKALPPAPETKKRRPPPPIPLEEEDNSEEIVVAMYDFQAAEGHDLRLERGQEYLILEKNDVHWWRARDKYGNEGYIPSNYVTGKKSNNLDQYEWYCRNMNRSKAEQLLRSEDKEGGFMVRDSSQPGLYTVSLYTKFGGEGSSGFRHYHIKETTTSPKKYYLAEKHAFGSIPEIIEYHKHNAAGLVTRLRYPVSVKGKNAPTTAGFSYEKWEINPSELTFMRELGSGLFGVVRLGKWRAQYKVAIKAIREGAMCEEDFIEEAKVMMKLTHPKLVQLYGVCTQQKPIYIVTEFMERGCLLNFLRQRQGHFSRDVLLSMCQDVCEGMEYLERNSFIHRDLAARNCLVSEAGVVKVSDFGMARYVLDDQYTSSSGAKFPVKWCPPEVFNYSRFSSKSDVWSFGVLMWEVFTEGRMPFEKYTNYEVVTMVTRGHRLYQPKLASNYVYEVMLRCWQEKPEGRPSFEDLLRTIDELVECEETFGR
Text: as §1

[29] = target: T29, Pim-1 (Homo sapiens, UniProt P11309); experiment: KinaseProfiler Pim-1
T29 construct: purchased Millipore, Inc. (KinaseProfiler service)
T29 sequence (P11309 whole entry): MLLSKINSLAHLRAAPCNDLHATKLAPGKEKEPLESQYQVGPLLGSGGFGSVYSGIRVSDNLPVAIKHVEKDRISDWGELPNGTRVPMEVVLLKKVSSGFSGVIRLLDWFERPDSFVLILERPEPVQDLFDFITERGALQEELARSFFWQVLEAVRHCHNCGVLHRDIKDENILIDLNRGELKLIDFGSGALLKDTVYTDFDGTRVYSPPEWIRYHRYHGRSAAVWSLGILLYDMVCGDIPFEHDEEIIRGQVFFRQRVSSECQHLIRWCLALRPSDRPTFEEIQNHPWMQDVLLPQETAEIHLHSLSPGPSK
Text: as §1

[30] = target: T30, DAPK2 (Homo sapiens, UniProt Q9UIK4); experiment: KinaseProfiler DAPK2
T30 construct: purchased Millipore, Inc. (KinaseProfiler service)
Text: as §1

[31] = target: T31, LIMK1 (Homo sapiens, UniProt P53667); experiment: KinaseProfiler LIMK1
T31 construct: purchased Millipore, Inc. (KinaseProfiler service)
Text: as §1

[32] = target: T32, MSK2 (Homo sapiens, UniProt O75676); experiment: KinaseProfiler MSK2
T32 construct: purchased Millipore, Inc. (KinaseProfiler service)
Text: as §1

[33] = target: T33, IRAK1 (Homo sapiens, UniProt P51617); experiment: KinaseProfiler IRAK1
T33 construct: purchased Millipore, Inc. (KinaseProfiler service)
Text: as §1

[34] = target: T34, EphA2 (Homo sapiens, UniProt P29317); experiment: KinaseProfiler EphA2
T34 construct: purchased Millipore, Inc. (KinaseProfiler service)
T34 sequence (P29317 24-976): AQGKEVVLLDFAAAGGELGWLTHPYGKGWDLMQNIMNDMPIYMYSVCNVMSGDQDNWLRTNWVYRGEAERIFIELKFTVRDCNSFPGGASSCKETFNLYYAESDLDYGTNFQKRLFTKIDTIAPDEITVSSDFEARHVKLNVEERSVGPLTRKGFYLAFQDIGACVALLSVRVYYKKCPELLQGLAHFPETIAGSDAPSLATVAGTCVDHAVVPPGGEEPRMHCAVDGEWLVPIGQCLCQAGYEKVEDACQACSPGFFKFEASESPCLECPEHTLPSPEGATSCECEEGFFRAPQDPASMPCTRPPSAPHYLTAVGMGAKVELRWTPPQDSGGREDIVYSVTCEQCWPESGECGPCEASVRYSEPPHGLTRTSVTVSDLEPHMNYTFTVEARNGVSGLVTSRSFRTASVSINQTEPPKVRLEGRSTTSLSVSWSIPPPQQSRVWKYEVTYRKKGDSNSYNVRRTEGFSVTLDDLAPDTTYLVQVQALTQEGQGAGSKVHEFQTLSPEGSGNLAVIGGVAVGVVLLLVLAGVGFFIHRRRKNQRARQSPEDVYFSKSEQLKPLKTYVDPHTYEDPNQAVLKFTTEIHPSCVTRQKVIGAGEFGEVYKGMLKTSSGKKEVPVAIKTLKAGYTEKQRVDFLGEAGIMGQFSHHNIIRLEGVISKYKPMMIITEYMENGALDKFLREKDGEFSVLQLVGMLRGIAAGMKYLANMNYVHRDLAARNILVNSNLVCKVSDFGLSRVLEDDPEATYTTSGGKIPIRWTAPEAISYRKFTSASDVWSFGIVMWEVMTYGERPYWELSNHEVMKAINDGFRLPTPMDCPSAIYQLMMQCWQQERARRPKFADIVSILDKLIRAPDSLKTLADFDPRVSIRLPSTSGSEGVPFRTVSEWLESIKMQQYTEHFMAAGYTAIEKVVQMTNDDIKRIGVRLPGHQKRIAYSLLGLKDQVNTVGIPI
Text: as §1

[35] = target: T35, MKK7beta (Homo sapiens, UniProt O14733); experiment: KinaseProfiler MKK7beta
T35 construct: purchased Millipore, Inc. (KinaseProfiler service)
T35 sequence (O14733 whole entry): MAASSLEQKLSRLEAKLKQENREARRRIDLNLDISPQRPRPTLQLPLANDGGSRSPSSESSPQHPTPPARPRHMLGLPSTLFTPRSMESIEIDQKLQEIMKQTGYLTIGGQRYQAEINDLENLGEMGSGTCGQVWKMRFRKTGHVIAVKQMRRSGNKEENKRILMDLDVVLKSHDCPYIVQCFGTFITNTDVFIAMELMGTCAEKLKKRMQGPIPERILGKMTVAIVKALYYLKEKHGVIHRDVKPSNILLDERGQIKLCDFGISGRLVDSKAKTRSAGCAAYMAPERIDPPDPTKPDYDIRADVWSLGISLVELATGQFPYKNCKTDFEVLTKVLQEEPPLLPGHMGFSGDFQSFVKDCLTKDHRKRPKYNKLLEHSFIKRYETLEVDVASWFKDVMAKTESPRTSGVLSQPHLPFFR
Text: as §1

[36] = target: T36, Rsk1 (Homo sapiens, UniProt Q15418); experiment: KinaseProfiler Rsk1
T36 construct: purchased Millipore, Inc. (KinaseProfiler service)
Text: as §1

[37] = target: T37, CLK2 (Homo sapiens, UniProt P49760); experiment: KinaseProfiler CLK2
T37 construct: purchased Millipore, Inc. (KinaseProfiler service)
T37 sequence (P49760 whole entry): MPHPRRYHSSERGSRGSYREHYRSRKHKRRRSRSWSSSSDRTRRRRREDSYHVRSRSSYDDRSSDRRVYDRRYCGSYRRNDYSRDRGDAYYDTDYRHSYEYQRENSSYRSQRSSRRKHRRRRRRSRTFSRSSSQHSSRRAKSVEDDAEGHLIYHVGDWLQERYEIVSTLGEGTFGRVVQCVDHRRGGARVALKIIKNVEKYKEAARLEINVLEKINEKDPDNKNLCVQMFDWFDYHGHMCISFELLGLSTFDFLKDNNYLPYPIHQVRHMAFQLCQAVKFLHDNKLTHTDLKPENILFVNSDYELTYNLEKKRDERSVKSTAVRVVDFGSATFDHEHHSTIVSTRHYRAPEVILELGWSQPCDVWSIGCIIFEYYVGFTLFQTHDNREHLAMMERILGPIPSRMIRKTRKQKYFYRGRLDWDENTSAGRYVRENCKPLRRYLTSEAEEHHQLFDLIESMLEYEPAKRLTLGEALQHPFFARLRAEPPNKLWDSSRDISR
Text: as §1

[38] = target: T38, PKCbetaI (Homo sapiens, UniProt P05771); experiment: KinaseProfiler PKCbetaI
T38 construct: purchased Millipore, Inc. (KinaseProfiler service)
T38 sequence (P05771 whole entry): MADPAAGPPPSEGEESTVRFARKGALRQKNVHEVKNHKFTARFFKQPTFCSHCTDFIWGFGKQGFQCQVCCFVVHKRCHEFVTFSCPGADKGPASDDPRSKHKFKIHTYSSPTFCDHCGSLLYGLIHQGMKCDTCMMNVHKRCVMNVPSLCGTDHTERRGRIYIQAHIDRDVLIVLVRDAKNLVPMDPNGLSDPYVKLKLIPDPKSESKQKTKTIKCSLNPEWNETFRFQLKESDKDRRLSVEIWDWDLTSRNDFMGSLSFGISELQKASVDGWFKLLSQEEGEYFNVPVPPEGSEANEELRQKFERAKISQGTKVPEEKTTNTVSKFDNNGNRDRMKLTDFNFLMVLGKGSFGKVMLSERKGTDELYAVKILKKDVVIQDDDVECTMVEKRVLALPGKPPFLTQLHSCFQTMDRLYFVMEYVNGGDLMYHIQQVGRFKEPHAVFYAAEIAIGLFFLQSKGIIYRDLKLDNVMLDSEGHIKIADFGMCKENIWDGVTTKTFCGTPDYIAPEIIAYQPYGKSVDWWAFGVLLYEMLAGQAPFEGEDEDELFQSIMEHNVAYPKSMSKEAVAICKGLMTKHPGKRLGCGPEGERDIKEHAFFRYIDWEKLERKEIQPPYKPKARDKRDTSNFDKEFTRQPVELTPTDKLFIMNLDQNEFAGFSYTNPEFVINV
Text: as §1

[39] = target: T39, FGFR3 (Homo sapiens, UniProt P22607); experiment: KinaseProfiler FGFR3
T39 construct: purchased Millipore, Inc. (KinaseProfiler service)
Text: as §1

[40] = target: T40, MINK (Homo sapiens, UniProt Q8N4C8); experiment: KinaseProfiler MINK
T40 construct: purchased Millipore, Inc. (KinaseProfiler service)
Text: as §1

[41] = target: T41, JNK1alpha1 (Homo sapiens, UniProt P45983); experiment: KinaseProfiler JNK1alpha1
T41 construct: purchased Millipore, Inc. (KinaseProfiler service)
Text: as §1

[42] = target: T42, MRCKalpha (Homo sapiens, UniProt Q5VT25); experiment: KinaseProfiler MRCKalpha
T42 construct: purchased Millipore, Inc. (KinaseProfiler service)
Text: as §1

[43] = target: T43, Fms (Homo sapiens, UniProt P07333); experiment: KinaseProfiler Fms
T43 construct: purchased Millipore, Inc. (KinaseProfiler service)
Text: as §1

Cc1c(-c2cnn(C)c2)nn(-c2ccccc2)c1NC(=O)Nc1cc(C(F)(F)F)nn1-c1ccccc1 [Example 3, 1-(1′,4-dimethyl-1-phenyl-1H,1′H-[3,4′-bipyrazol]-5-yl)-3-(1-phenyl-3-(trifluoromethyl)-1H-pyrazol-5-yl)urea]
Avg POC [1]: 69.5 POC
Avg POC [2]: 94 POC
Avg POC [3]: 123 POC
Avg POC [4]: 98 POC
Avg POC [5]: 219.5 POC
Avg POC [6]: 105.5 POC
Avg POC [7]: 96 POC
Avg POC [8]: 86.5 POC
Avg POC [9]: 97.5 POC
Avg POC [10]: 92.5 POC
Avg POC [11]: 142.5 POC
Avg POC [12]: 119 POC
Avg POC [13]: 121 POC
Avg POC [14]: 126 POC
Avg POC [15]: 93 POC
Avg POC [16]: 99.5 POC
Avg POC [17]: 145.5 POC
Avg POC [18]: 106 POC
Avg POC [19]: 111 POC
Avg POC [20]: 90.5 POC
Avg POC [21]: 94.5 POC
Avg POC [22]: 87 POC
Avg POC [23]: 103.5 POC
Avg POC [24]: 92.5 POC
Avg POC [25]: 122 POC
Avg POC [26]: 98 POC
Avg POC [27]: 98 POC
Avg POC [28]: 144.5 POC
Avg POC [29]: 119.5 POC
Avg POC [30]: 106 POC
Avg POC [31]: 92 POC
Avg POC [32]: 119.5 POC
Avg POC [33]: 102.5 POC
Avg POC [34]: 120 POC
Avg POC [35]: 143.5 POC
Avg POC [36]: 123 POC
Avg POC [37]: 135 POC
Avg POC [38]: 87 POC
Avg POC [39]: 116.5 POC
Avg POC [40]: 105 POC
Avg POC [41]: 111.5 POC
Avg POC [42]: 172.5 POC
Avg POC [43]: 91.5 POC
